Measured values from US20240196899A1, “PESTICIDAL MIXTURES” (priority 2021, published 2024).

What was measured:
[1] = system: Spodoptera littoralis larvae; assay: Larval mortality of S. littoralis fed on treated castor bean leaves (tank mix novaluron + methoxyfenozide), Colby synergy; type: in vivo; settings: Table 1, 0.01 mg a.i./L of each active
Protocol: (§1) Colby's method is used to determine if synergy exists for a combination of active ingredients. According to Colby, the expected action (E) of active ingredients A+B is:
(§2) [formula] • where E=expected efficacy, A and B=the efficacy of two active ingredients A and B at a given dose.
(§3) When the percentage of control observed (O) for the combination is greater than the expected (E) percentage, there is a synergistic effect. The synergism ratio (R) is calculated as the ratio between the […].
A representative experiment was conducted to evaluate the insecticidal control of novaluron, a compound II, namely methoxyfenozide as well as a mixture of novaluron and methoxyfenozide against Spodoptera littoralis larvae.
(§4) The experiments were conducted by applying commercially available compositions of Novaluron (Rimon®) and methoxyfenozide (Runner®) alone or together. The compositions were diluted with water to the stated concentration of the active compound.
(§5) The following active ingredients and their mixtures were evaluated: • Novaluron: 0.01 mg a.i./liter • Methoxyfenozide: 0.01 mg a.i./liter • Novaluron+Methoxyfenozide 0.01 mg a.i./liter+0.01 mg a.i./liter
(§6) To evaluate the insecticidal control of novaluron and methoxyfenozide alone and in a binary mixture, castor bean leaves were treated with the above listed treatments. The treated leaves were exposed for 4-day feeding to 3rd-instar Spodoptera littoralis and the larvae were exposed for additional 4 days on untreated leaves. Larval mortality was determined at day 4 and 8. The treatments were composed of 3-5 replicates of 10 larvae each.

[2] = system: Spodoptera littoralis larvae; assay: Larval weight gain (LWG) of S. littoralis on treated castor bean leaves; type: in vivo; settings: Table 3
Protocol: as §4, §5, §6
Larval weight gain (LWG) was also measured in order to determine the effectiveness of the mixture of novaluron and methoxyfenozide when compared to the solo application of novaluron and methoxyfenozide.
Table 3 below summarizes the larval weight gain (LWG) (compared to the control), that was determined 4 days after treatment for the mixture of novaluron and methoxyfenozide.

T. absoluta = assay: Insecticidal % control against T. absoluta, Colby synergy; type: in vivo, Tuta absoluta; settings: 72 hours after treatment
Protocol: as §1, §2, §3
(§7) The insecticidal compounds A (Novaluron) and B (mix partner) are formulated as equivalent suspension concentrates to eliminate the effects of differing formulation inerts on biological activity. Efficacy of the insecticidal compositions is evaluated with reference to a scale of 0% to 100% in comparison with untreated control plots. 0 means no damage and 100 means complete destruction of the harmful pests.
(§8) Likewise following experimentations were done on other mixtures of novaluron on various pests, the result of which are summarized in the below tables: […]

F. occidentalis = assay: Insecticidal % control against F. occidentalis, Colby synergy; type: in vivo, Frankliniella occidentalis
Protocol: as §1, §2, §3, §7, §8

S. frugiperda = assay: Insecticidal % control against S. frugiperda, Colby synergy; type: in vivo, Spodoptera frugiperda; settings: 120 hours after treatment
Protocol: as §1, §2, §3, §7, §8

[3] = system: Cotton Leafworm, S. littoralis; assay: Insecticidal % control against Cotton Leafworm, S. littoralis, Colby synergy; type: in vivo, Spodoptera littoralis; settings: 72 hours after treatment
Protocol: as §1, §2, §3, §7, §8

M. persicae = assay: Insecticidal % control against M. persicae, Colby synergy; type: in vivo, Myzus persicae
Protocol: as §1, §2, §3, §7, §8

T. urticae = assay: Insecticidal % control against T. urticae, Colby synergy; type: in vivo, Tetranychus urticae
Protocol: as §1, §2, §3, §7, §8

B. tabaci = assay: Insecticidal % control against B. tabaci, Colby synergy; type: in vivo, Bemisia tabaci; settings: Table 7, 72 hours after treatment
Protocol: as §1, §2, §3, §7, §8

A. gossypii = assay: Insecticidal % control against A. gossypii, Colby synergy; type: in vivo, Aphis gossypii; settings: 96 hours after treatment
Protocol: as §1, §2, §3, §7, §8

H. halys = assay: Insecticidal % control against H. halys, Colby synergy; type: in vivo, Halyomorpha halys; settings: Table 20 B; 144 hours after treatment; 50 ppm
Protocol: as §1, §2, §3, §7, §8

## O=C(NC(=O)c1c(F)cccc1F)Nc1ccc(OC(F)(F)C(F)OC(F)(F)F)c(Cl)c1 (single isomer, unassigned; (+)) [Novaluron, (+)-I-[3-chloro-4-(1,1,2-trifluoro-2-trifluoromethoxyethoxy)phenyl]-3-(2,6-difluorobenzoyl) urea]
[1]; 3rd-instar larvae, 4-day feeding on treated leaves, day 4
  Larval mortality, % (observed) 4 d: 3.5%
[1]; 4 days on treated then 4 days on untreated leaves, day 8
  Larval mortality, % (observed) 8 d: 20%
[2]; 4 days after treatment, 0.01 mg a.i./L of each active
  LWG % rel. Control: 108 % rel. Control
[2]; applied alone
  effect on the weight gain of the Spodoptera littoralis larvae: neither novaluron nor methoxyfenozide alone have any effect on the weight gain
T. absoluta; Table 2, 300 ppm
  Observed % control (O): 0%
T. absoluta; Table 5 C, 0.1 ppm
  Observed % control (O): 16.7%
T. absoluta; Table 5 C, 1 ppm
  Observed % control (O): 16.7%
T. absoluta; Table 5 C, 300 ppm
  Observed % control (O): 16.7%
F. occidentalis; Table 4 A, 48 hours after treatment, 5.3 ppm
  Observed % control (O): 14.0%
F. occidentalis; Table 4 B, 72 hours after treatment, 5.3 ppm
  Observed % control (O): 20.0%
F. occidentalis; Table 4 C, 7 days after treatment, 5.3 ppm
  Observed % control (O): 40.0%
F. occidentalis; Table 5 D, 48 hours after treatment, 3.5 ppm
  Observed % control (O): 4.0%
F. occidentalis; Table 5 E, 72 hours after treatment, 3.5 ppm
  Observed % control (O): 4.0%
F. occidentalis; Table 5 F, 7 days after treatment, 3.5 ppm
  Observed % control (O): 8.0%
F. occidentalis; Table 18 B, 72 hours after treatment, 5 ppm
  Observed % control (O): 10.0%
F. occidentalis; Table 18 B, 72 hours after treatment, 500 ppm
  Observed % control (O): 10.0%
F. occidentalis; Table 20 C, 48 hours after treatment, 1 ppm
  Observed % control (O): 16.0%
F. occidentalis; Table 20 D, 72 hours after treatment, 1 ppm
  Observed % control (O): 50.0%
F. occidentalis; Table 20 D, 72 hours after treatment, 100 ppm
  Observed % control (O): 50.0%
F. occidentalis; Table 20 E, 7 days after treatment, 1 ppm
  Observed % control (O): 74.0%
F. occidentalis; Table 20 E, 7 days after treatment, 100 ppm
  Observed % control (O): 84.0%
S. frugiperda; Table 5 A, 0.01 ppm
  Observed % control (O): 27%
S. frugiperda; Table 5 A, 0.05 ppm
  Observed % control (O): 40%
S. frugiperda; Table 9, 0.01 ppm
  Observed % control (O): 27%
S. frugiperda; Table 9, 0.025 ppm
  Observed % control (O): 30%
S. frugiperda; Table 10 A, 0.025 ppm
  Observed % control (O): 30%
[3]; Table 5 B, 0.02 ppm
  Observed % control (O): 0%
[3]; Table 8, 12 ppm
  Observed % control (O): 75%
[3]; Table 10 B, 0.02 ppm
  Observed % control (O): 30%
[3]; Table 11, 12 ppm
  Observed % control (O): 25%
[3]; Table 12, 12 ppm
  Observed % control (O): 75%
[3]; Table 13, 12 ppm
  Observed % control (O): 75%
[3]; Table 16, 0.04 ppm
  Observed % control (O): 73%
[3]; Table 20 A, 0.02 ppm
  Observed % control (O): 0%
[3]; Table 20 A, 0.2 ppm
  Observed % control (O): 5%
[3]; Table 21, 12 ppm
  Observed % control (O): 12.5%
M. persicae; Table 6 A, 72 hours after treatment, 1 ppm
  Observed % control (O): 34%
M. persicae; Table 6 B, 7 days after treatment, 1 ppm
  Observed % control (O): 38.8%
M. persicae; Table 15 A, 48 hours after treatment, 50 ppm
  Observed % control (O): 14%
M. persicae; Table 15 B, 72 hours after treatment, 0.5 ppm
  Observed % control (O): 30%
M. persicae; Table 15 B, 72 hours after treatment, 50 ppm
  Observed % control (O): 44%
M. persicae; Table 17 A, 72 hours after treatment, 0.2 ppm
  Observed % control (O): 56%
M. persicae; Table 17 B, 7 days after treatment, 0.2 ppm
  Observed % control (O): 62.5%
M. persicae; Table 19 B, 7 days after treatment, 500 ppm
  Observed % control (O): 72.9%
T. urticae; Table 6 C, 48 hours after treatment, 6 ppm
  Observed % control (O): 0%
T. urticae; Table 6 D, 72 hours after treatment, 6 ppm
  Observed % control (O): 0%
T. urticae; Table 6 E, 7 days after treatment, 6 ppm
  Observed % control (O): 6.1%
T. urticae; Table 14 A, 48 hours after treatment, 2.4 ppm
  Observed % control (O): 12%
T. urticae; Table 14 A, 48 hours after treatment, 120 ppm
  Observed % control (O): 8%
T. urticae; Table 14 B, 72 hours after treatment, 2.4 ppm
  Observed % control (O): 13%
T. urticae; Table 14 B, 72 hours after treatment, 120 ppm
  Observed % control (O): 10%
T. urticae; Table 14 C, 7 days after treatment, 2.4 ppm
  Observed % control (O): 15%
T. urticae; Table 14 C, 7 days after treatment, 120 ppm
  Observed % control (O): 17%
B. tabaci; 7 ppm
  Observed % control (O): 23.1%
B. tabaci; 35 ppm
  Observed % control (O): 25.2%
A. gossypii; Table 18 A, 10 ppm
  Observed % control (O): 16.2%
A. gossypii; Table 19 A, 100 ppm
  Observed % control (O): 16.5%
H. halys
  Observed % control (O): 12.5%
